Test results: ChEMBL document CHEMBL4507266, “Data for DCP probe BAY-784” (2021)

Legend:
[1] = biological target: Serine/threonine-protein kinase 3 (Homo sapiens) (UniProt Q13188); settings: Compound concentration 1000.0 nM
[2] = biological target: Receptor-type tyrosine-protein kinase FLT3 (Homo sapiens) (UniProt P36888); settings: Compound concentration 1000.0 nM
[3] = system: Phosphatidylinositol 4,5-bisphosphate 3-kinase catalytic subunit alpha isoform (Homo sapiens), P42336 [E545K]; settings: Compound concentration 1000.0 nM
[4] = biological target: Phosphorylase b kinase gamma catalytic chain, skeletal muscle/heart isoform (Homo sapiens) (UniProt Q16816); settings: Compound concentration 1000.0 nM
[5] = biological target: Myotonin-protein kinase (Homo sapiens) (UniProt Q09013); settings: Compound concentration 1000.0 nM
[6] = system: Phosphatidylinositol 4,5-bisphosphate 3-kinase catalytic subunit alpha isoform (Homo sapiens), P42336 [H1047L]; settings: Compound concentration 1000.0 nM
[7] = biological target: Fibroblast growth factor receptor 4 (Homo sapiens) (UniProt P22455); settings: Compound concentration 1000.0 nM
[8] = biological target: 5'-AMP-activated protein kinase catalytic subunit alpha-2 (Homo sapiens) (UniProt P54646); settings: Compound concentration 1000.0 nM
Chain of 5'-AMP-activated protein kinase catalytic subunit alpha-2 (Homo sapiens) (P54646 whole entry, looked up): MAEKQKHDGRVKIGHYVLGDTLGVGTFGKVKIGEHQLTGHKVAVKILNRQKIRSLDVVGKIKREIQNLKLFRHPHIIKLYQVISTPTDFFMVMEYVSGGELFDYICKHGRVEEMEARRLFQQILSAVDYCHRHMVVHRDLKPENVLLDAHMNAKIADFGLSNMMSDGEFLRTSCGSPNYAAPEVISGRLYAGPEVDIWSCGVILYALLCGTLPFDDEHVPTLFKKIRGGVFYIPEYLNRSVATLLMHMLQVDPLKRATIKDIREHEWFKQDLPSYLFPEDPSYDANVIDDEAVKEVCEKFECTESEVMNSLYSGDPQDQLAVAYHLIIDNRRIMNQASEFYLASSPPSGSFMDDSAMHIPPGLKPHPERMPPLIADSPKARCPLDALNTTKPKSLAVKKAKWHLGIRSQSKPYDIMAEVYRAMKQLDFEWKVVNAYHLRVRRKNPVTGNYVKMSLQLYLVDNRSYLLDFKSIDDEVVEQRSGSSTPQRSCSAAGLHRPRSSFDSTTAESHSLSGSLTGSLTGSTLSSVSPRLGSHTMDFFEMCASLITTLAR

[9] = biological target: Homeodomain-interacting protein kinase 1 (Homo sapiens) (UniProt Q86Z02); settings: Compound concentration 1000.0 nM
[10] = biological target: Tyrosine-protein kinase ABL1 (Homo sapiens) (UniProt P00519); settings: Compound concentration 1000.0 nM
[11] = biological target: cAMP-dependent protein kinase catalytic subunit alpha (Homo sapiens) (UniProt P17612); settings: Compound concentration 1000.0 nM
[12] = biological target: Serine/threonine-protein kinase 36 (Homo sapiens) (UniProt Q9NRP7); settings: Compound concentration 1000.0 nM
[13] = biological target: Non-receptor tyrosine-protein kinase TYK2 (Homo sapiens) (UniProt P29597); settings: Compound concentration 1000.0 nM
[14] = system: Tyrosine-protein kinase ABL1 (Homo sapiens), P00519 [Q252H]; settings: Compound concentration 1000.0 nM
[15] = biological target: Myosin-IIIb (Homo sapiens) (UniProt Q8WXR4); settings: Compound concentration 1000.0 nM
[16] = biological target: Fibroblast growth factor receptor 2 (Homo sapiens) (UniProt P21802); settings: Compound concentration 1000.0 nM
[17] = biological target: Ephrin type-A receptor 2 (Homo sapiens) (UniProt P29317); settings: Compound concentration 1000.0 nM
Chain of Ephrin type-A receptor 2 (Homo sapiens) (P29317 whole entry): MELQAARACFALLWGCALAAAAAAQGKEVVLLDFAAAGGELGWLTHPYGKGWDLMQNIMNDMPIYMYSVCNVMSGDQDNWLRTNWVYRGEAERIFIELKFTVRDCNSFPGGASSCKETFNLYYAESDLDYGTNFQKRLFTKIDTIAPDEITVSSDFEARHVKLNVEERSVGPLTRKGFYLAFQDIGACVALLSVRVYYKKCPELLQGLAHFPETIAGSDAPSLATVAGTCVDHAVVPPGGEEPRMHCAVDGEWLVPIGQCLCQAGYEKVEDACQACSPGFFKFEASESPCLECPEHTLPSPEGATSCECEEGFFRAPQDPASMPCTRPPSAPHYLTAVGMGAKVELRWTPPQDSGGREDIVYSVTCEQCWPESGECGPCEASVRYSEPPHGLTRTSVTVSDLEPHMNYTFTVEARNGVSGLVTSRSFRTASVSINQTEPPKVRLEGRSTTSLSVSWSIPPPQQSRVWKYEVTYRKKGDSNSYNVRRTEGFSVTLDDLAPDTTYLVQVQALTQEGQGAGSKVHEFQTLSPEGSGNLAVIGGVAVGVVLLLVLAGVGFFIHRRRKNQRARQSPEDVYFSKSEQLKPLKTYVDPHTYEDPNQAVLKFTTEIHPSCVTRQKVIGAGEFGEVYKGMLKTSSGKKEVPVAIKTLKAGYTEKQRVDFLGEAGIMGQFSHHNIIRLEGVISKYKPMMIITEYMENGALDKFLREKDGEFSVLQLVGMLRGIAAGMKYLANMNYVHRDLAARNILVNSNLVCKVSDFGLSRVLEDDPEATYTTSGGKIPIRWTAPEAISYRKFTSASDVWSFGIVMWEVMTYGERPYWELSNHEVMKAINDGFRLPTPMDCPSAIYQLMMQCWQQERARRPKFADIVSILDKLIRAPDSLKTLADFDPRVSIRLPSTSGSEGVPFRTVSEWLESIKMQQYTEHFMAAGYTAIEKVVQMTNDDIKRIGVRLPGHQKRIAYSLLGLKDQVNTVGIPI

[18] = biological target: STE20-like serine/threonine-protein kinase (Homo sapiens) (UniProt Q9H2G2); settings: Compound concentration 1000.0 nM
[19] = biological target: Bone morphogenetic protein receptor type-2 (Homo sapiens) (UniProt Q13873); settings: Compound concentration 1000.0 nM
[20] = biological target: Ribosomal protein S6 kinase alpha-1 (Homo sapiens) (UniProt Q15418); settings: Compound concentration 1000.0 nM
[21] = biological target: Histamine H3 receptor (Homo sapiens) (UniProt Q9Y5N1); settings: Compound concentration 10.0 uM
[22] = biological target: Homeodomain-interacting protein kinase 3 (Homo sapiens) (UniProt Q9H422); settings: Compound concentration 1000.0 nM
[23] = biological target: Mitogen-activated protein kinase 15 (Homo sapiens) (UniProt Q8TD08); settings: Compound concentration 1000.0 nM
[24] = biological target: Serine/threonine-protein kinase D1 (Homo sapiens) (UniProt Q15139); settings: Compound concentration 1000.0 nM
Chain of Serine/threonine-protein kinase D1 (Homo sapiens) (Q15139 whole entry): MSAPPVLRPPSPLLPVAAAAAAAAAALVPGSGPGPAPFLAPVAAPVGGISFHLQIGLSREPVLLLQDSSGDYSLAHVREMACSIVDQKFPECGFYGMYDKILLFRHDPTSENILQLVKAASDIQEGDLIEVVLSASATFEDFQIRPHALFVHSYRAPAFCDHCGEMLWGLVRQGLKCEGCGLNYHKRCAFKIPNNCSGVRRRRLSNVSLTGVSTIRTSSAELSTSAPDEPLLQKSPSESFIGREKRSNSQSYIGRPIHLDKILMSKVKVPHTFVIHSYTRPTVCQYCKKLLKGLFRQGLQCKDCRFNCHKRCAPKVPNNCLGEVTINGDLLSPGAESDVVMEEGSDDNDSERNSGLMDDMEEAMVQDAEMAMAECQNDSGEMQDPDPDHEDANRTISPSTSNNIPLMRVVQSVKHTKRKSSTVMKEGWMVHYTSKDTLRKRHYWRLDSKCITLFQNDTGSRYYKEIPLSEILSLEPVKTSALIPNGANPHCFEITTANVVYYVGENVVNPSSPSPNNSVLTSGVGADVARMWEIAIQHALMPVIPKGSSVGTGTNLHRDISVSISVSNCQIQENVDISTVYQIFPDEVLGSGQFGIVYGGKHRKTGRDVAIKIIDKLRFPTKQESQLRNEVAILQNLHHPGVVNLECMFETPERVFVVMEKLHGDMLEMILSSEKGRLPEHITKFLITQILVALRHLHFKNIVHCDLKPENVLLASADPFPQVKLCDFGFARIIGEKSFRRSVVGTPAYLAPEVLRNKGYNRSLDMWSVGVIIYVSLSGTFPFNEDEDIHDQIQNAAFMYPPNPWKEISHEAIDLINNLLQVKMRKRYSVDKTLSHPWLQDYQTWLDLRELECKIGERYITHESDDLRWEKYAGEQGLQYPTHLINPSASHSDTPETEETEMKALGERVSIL

[25] = biological target: Mitogen-activated protein kinase 11 (Homo sapiens) (UniProt Q15759); settings: Compound concentration 1000.0 nM
Chain of Mitogen-activated protein kinase 11 (Homo sapiens) (Q15759 whole entry): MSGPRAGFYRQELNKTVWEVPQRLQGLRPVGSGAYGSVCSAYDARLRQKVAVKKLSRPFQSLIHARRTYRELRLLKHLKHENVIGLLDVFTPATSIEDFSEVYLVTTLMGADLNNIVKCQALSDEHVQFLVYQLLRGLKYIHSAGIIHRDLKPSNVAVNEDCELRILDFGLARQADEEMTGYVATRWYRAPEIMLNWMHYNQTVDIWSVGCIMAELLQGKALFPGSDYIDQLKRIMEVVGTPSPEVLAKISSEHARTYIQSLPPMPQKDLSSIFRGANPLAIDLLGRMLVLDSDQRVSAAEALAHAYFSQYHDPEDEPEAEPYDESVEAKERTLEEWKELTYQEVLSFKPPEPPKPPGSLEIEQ

[26] = biological target: Sigma intracellular receptor 2 (Homo sapiens, UniProt Q5BJF2); settings: Compound concentration 10.0 uM
[27] = biological target: Mitogen-activated protein kinase 4 (Homo sapiens) (UniProt P31152); settings: Compound concentration 1000.0 nM
[28] = biological target: Serine/threonine-protein kinase NIM1 (Homo sapiens) (UniProt Q8IY84); settings: Compound concentration 1000.0 nM
[29] = biological target: Serine/threonine-protein kinase/endoribonuclease IRE1 (Homo sapiens) (UniProt O75460); settings: Compound concentration 1000.0 nM
[30] = biological target: Inhibitor of nuclear factor kappa-B kinase subunit alpha (Homo sapiens) (UniProt O15111); settings: Compound concentration 1000.0 nM
[31] = biological target: Serine/threonine-protein kinase Nek2 (Homo sapiens) (UniProt P51955); settings: Compound concentration 1000.0 nM
[32] = biological target: Serine/threonine-protein kinase RIO2 (Homo sapiens) (UniProt Q9BVS4); settings: Compound concentration 1000.0 nM
[33] = system: Proto-oncogene tyrosine-protein kinase receptor Ret (Homo sapiens), P07949 [M918T]; settings: Compound concentration 1000.0 nM
[34] = biological target: Rho-associated protein kinase 2 (Homo sapiens) (UniProt O75116); settings: Compound concentration 1000.0 nM
Chain of Rho-associated protein kinase 2 (Homo sapiens) (O75116 whole entry, looked up): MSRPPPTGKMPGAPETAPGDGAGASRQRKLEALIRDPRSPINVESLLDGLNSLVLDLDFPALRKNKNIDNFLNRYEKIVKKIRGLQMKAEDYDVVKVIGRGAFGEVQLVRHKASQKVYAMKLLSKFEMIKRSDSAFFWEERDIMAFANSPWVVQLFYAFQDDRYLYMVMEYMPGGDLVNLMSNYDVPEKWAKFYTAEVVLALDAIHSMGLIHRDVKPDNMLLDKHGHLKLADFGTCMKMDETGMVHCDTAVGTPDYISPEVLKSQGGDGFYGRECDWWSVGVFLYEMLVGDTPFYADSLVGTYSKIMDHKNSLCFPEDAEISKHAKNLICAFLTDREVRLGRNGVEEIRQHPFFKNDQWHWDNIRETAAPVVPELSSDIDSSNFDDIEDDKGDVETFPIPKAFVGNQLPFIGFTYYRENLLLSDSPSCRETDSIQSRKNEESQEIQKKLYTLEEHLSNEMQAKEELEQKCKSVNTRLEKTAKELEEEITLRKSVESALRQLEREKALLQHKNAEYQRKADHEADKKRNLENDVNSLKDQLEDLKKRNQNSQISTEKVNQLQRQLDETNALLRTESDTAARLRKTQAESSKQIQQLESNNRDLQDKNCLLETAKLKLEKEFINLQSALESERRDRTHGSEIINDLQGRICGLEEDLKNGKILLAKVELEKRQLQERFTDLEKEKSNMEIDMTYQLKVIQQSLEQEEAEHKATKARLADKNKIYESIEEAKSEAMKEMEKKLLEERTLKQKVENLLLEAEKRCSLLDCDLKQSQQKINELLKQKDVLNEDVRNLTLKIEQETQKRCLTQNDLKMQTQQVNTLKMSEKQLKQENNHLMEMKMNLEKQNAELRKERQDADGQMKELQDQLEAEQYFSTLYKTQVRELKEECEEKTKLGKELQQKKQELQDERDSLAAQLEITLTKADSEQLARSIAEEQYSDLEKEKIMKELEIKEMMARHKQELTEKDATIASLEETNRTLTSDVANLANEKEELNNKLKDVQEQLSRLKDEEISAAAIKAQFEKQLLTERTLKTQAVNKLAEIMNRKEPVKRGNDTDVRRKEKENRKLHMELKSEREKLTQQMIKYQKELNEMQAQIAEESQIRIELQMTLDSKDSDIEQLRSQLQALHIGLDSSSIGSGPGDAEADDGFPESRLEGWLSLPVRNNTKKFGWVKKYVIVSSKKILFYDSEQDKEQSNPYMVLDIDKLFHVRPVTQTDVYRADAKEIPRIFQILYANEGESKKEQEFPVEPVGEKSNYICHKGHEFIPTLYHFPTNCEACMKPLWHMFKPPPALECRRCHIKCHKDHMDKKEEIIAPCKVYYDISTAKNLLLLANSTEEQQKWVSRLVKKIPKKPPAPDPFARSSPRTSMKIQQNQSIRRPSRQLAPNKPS

[35] = biological target: Mast/stem cell growth factor receptor Kit (Homo sapiens) (UniProt P10721); settings: Compound concentration 1000.0 nM
[36] = biological target: 5-hydroxytryptamine receptor 1B (Homo sapiens) (UniProt P28222); settings: Compound concentration 10.0 uM
[37] = system: Hepatocyte growth factor receptor (Homo sapiens), P08581 [Y1235D]; settings: Compound concentration 1000.0 nM
[38] = biological target: Serine/threonine-protein kinase RIO1 (Homo sapiens) (UniProt Q9BRS2); settings: Compound concentration 1000.0 nM
Chain of Serine/threonine-protein kinase RIO1 (Homo sapiens) (Q9BRS2 whole entry): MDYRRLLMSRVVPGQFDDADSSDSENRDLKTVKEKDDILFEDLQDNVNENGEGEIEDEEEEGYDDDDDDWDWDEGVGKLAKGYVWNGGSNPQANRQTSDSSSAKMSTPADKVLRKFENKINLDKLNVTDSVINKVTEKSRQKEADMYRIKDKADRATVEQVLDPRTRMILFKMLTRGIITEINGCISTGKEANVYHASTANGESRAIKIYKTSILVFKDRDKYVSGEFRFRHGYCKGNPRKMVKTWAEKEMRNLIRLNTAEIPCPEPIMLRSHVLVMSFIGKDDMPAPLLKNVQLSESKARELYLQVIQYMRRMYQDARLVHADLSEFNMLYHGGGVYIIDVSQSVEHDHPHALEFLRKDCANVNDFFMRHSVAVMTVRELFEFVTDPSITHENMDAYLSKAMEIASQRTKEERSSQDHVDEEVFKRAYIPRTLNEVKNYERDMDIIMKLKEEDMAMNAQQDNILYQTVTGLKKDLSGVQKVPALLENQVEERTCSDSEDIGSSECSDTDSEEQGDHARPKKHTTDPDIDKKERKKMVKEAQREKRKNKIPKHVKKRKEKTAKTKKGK

[39] = system: Proto-oncogene tyrosine-protein kinase receptor Ret (Homo sapiens), P07949 [V804M]; settings: Compound concentration 1000.0 nM
[40] = biological target: Serine/threonine-protein kinase Nek7 (Homo sapiens) (UniProt Q8TDX7); settings: Compound concentration 1000.0 nM
Chain of Serine/threonine-protein kinase Nek7 (Homo sapiens) (Q8TDX7 whole entry, looked up): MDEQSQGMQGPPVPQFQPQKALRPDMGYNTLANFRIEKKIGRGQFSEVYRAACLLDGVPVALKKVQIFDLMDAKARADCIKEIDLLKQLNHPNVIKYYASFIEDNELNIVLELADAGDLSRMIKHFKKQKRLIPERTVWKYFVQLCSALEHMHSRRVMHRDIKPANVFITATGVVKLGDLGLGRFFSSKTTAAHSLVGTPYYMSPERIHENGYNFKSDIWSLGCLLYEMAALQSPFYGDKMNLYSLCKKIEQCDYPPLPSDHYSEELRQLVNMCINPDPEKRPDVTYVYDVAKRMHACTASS

[41] = biological target: Serine/threonine-protein kinase PknB (Mycobacterium tuberculosis) (UniProt P9WI81); settings: Compound concentration 1000.0 nM
[42] = biological target: Calcium-dependent protein kinase 1 (Plasmodium falciparum) (UniProt P62344); settings: Compound concentration 1000.0 nM
[43] = biological target: cGMP-dependent protein kinase 2 (Homo sapiens) (UniProt Q13237); settings: Compound concentration 1000.0 nM
[44] = biological target: Wee1-like protein kinase 2 (Homo sapiens) (UniProt P0C1S8); settings: Compound concentration 1000.0 nM
[45] = system: Phosphatidylinositol 4,5-bisphosphate 3-kinase catalytic subunit alpha isoform (Homo sapiens), P42336 [E542K]; settings: Compound concentration 1000.0 nM

O=C(NCc1ncc(C(F)(F)F)cc1Cl)c1ccc2c(c1)C1(CCS(=O)(=O)CC1)[C@H](C1CC1)N2S(=O)(=O)c1ccc(F)cc1 [BAY-784]
residual activity [1]: 100%
residual activity [2]: 100%
residual activity [3]: 84%
residual activity [4]: 100%
residual activity [5]: 93%
residual activity [6]: 77%
residual activity [7]: 100%
residual activity [8]: 100%
residual activity [9]: 83%
residual activity [10]: 71%
residual activity [11]: 86%
residual activity [12]: 100%
residual activity [13]: 79%
residual activity [14]: 70%
residual activity [15]: 74%
residual activity [16]: 86%
residual activity [17]: 100%
residual activity [18]: 100%
residual activity [19]: 80%
residual activity [20]: 99%
inhibition [21]: -8.26%
residual activity [22]: 82%
residual activity [23]: 100%
residual activity [24]: 93%
residual activity [25]: 100%
inhibition [26]: 74.9%
residual activity [27]: 91%
residual activity [28]: 83%
residual activity [29]: 78%
residual activity [30]: 77%
residual activity [31]: 89%
residual activity [32]: 77%
residual activity [33]: 96%
residual activity [34]: 95%
residual activity [35]: 76%
inhibition [36]: -6.19%
residual activity [37]: 100%
residual activity [38]: 100%
residual activity [39]: 100%
residual activity [40]: 100%
residual activity [41]: 96%
residual activity [42]: 85%
residual activity [43]: 77%
residual activity [44]: 100%
residual activity [45]: 94%

O=C(NCc1ncc(C(F)(F)F)cc1Cl)c1ccc2c(c1)C1(CCS(=O)(=O)CC1)[C@@H](C1CC1)N2S(=O)(=O)c1ccc(F)cc1 [BAY-786]
residual activity [1]: 87%
residual activity [2]: 100%
residual activity [3]: 74%
residual activity [4]: 100%
residual activity [5]: 86%
residual activity [6]: 85%
residual activity [7]: 100%
residual activity [8]: 100%
residual activity [9]: 70%
residual activity [10]: 86%
residual activity [11]: 98%
residual activity [12]: 100%
residual activity [13]: 73%
residual activity [14]: 87%
residual activity [15]: 100%
residual activity [16]: 98%
residual activity [17]: 84%
residual activity [18]: 100%
residual activity [19]: 73%
residual activity [20]: 100%
inhibition [21]: 6.92%
residual activity [22]: 81%
residual activity [23]: 100%
residual activity [24]: 76%
residual activity [25]: 100%
inhibition [26]: 52.7%
residual activity [27]: 89%
residual activity [28]: 78%
residual activity [29]: 65%
residual activity [30]: 84%
residual activity [31]: 88%
residual activity [32]: 77%
residual activity [33]: 100%
residual activity [34]: 93%
residual activity [35]: 82%
inhibition [36]: -2.74%
residual activity [37]: 100%
residual activity [38]: 78%
residual activity [39]: 100%
residual activity [40]: 65%
residual activity [41]: 84%
residual activity [42]: 100%
residual activity [43]: 89%
residual activity [44]: 100%
residual activity [45]: 82%
